# US8093286B2, “Methods for treatment with bucindolol based on genetic targeting” (The Regents of the University of Colorado, a body corporate, priority 2004, dated 2012)
# Values joined by “and” are separate entries in the source; they are usually repeats but may differ in a detail not shown here. Equal values may be shown once. Where a name gives a salt, the structure may show the parent alone. Marks after values point to notes of the source that are not given here.
# System: patients with Class III/IV heart failure
# Assay: BEST trial, bucindolol vs placebo, clinical outcomes incl. DNA substudy and norepinephrine-change analyses
# Format: in vivo
# Details: for hazard ratio for hospitalizations, bucindolol vs placebo: adjusted for position 49; for Crude mortality: bucindolol group; for Mortality (M) hazard ratio, NE change quartile 2nd/1st / Mortality (M) hazard ratio, NE change quartile 3rd/1st / Mortality (M) hazard ratio, NE change quartile 4th/1st / Mortality + CHF hospitalization (M + H) hazard ratio, NE change quartile 2nd/1st / Mortality + CHF hospitalization (M + H) hazard ratio, NE change quartile 3rd/1st / Mortality + CHF hospitalization (M + H) hazard ratio, NE change quartile 4th/1st: within bucindolol group; for hazard ratio for survival, bucindolol vs placebo: adjusted for position 49 variants, age, sex, race
# Description: Patients who participated in the Beta Blocker Evaluation of Survival Trial (BEST), (Lowes et al., 2002) and who consented for DNA substudies, were genotyped at the coding β1AR polymorphic sites. Enrollment in BEST was from May 31, 1995 to Dec. 31, 1998; the study design has been described in detail elsewhere (BEST Trial Investigators, 2001; and Lowes et al., 2002). Briefly, the study was a randomized, multicenter, placebo-controlled trial of the 3rd generation, nonselective β-blocker-vasodilator bucindolol (Bristow, 2000) in 2708 patients with Class III/IV heart failure (BEST Trial Investigators, 2001). Those receiving the active drug were administered 3 mg bucindolol twice daily for the first week, and up-titrated as tolerated on a weekly basis to 50 mg twice daily (or 100 mg twice daily for patients weighing >75 kg). Of the 2708 patients, 1040 consented for the substudy and had adequate DNA prepared from a blood sample. The study was approved by the BEST DNA Oversight Committee and the University of Cincinnati Institutional Review Board.
# DNA was extracted from whole blood using standard techniques (Jones, 1963). Genotyping was performed using methods exactly as previously described in detail (Small et al., 2002). For the β1AR, variations at coding nucleotides 145 and 1165 were delineated, which correspond to amino acids 49 and 389. These alleles are designated as β1-Ser49, β1-Gly49 and β1-Arg389, β1-Gly389. All the DNA samples were successfully genotyped at the β1AR-389 locus and 1030 were successfully genotyped at β1AR-49.
# The primary endpoints were all-cause mortality, hospitalizations adjudicated by an endpoints committee (BEST Trial Investigators, 2001) to be due to heart failure, and the combined endpoint of death or heart failure hospitalization. The variants at amino acid position 389 of the β1AR (Arg and Gly) were considered the primary genotypes hypothesized to influence […] efficacy. Continuous clinical variables are reported as mean ±SD, and comparisons were by t-test or Wilcoxon rank-sum tests. Categorical variables are reported as proportions and comparisons were by chi-square or Fisher's exact tests. Cumulative survival curves were constructed by Kaplan-Meier methods (Kaplan et al., 1958); and SAS (r) proprietary software, release 6.12. Cary, N.C.: SAS Institute, 1996). The Cox proportional-hazards regression model was used to examine the effects of treatment stratified by the indicated genotype. Results were adjusted for age, sex, race, and, as indicated, the β1-Gly49 polymorphism. Because of the limited number of comparisons, and an a priori hypothesis that was based on cell, transgenic, and other human studies […] Perez et al., 2003); and Wagoner et al., 2002), the P values <0.05 were considered to as significant, without adjustments for multiple comparisons.
# Norepinephrine levels at baseline, or the change at 3 months were used to predict survival and the combined endpoint of mortality+CHF hospitalization. Absolute and log transformed data were initially analyzed. Because of skewness in norepinephrine levels natural log (Ln) transformed data were used in multivariate Cox proportional hazards regression models.
# A Maximum Likelihood based method (Kalbfleisch et al., 1980) was used to categorize changes in norepinephrine into 3 groups for prediction of mortality or mortality+CHF hospitalization. This partitioning method finds the optimal split of norepinephrine values that maximize the likelihood of the resulting Cox proportional hazards model. In addition, a flexible cubic spline analysis (Green et al., 1994) was used to determine the shape and significance level of the relationship of norepinephrine changes at 3 months to survival.
# [1] = 1st quartile of absolute NE change
# [2] = 2nd quartile of absolute NE change
# [3] = 3rd quartile of absolute NE change
# [4] = 4th quartile of absolute NE change
# [5] = BEST α2c DEL carrier (n = 207/1036)
# [6] = BEST β1 389Arg/Arg + α2c DEL carriers (n = 73/1036)
# [7] = BEST β1 389Arg/Arg + α2c WT/WT (n = 418/1036)
# [8] = BEST β1 389 Gly carriers + DEL carriers (n = 134/1036)
# [9] = BEST β1 389 Gly carriers + α2c WT/WT (n = 411/1036)
# [10] = absolute NE change at 3 months, pg/ml
# [11] = β1 389Arg/Arg and α2c WT/WT patients
smiles,measurement,setting,value
"CC(C)(Cc1c[nH]c2ccccc12)NCC(O)COc1ccccc1C#N (stereo not drawn) [bucindolol, (2-{2-hydroxy-3{{2-(3-indolyl)-1,1-dimethylethyl}amino}propoxy}-benzonitrile hydrochloride)]","bucindolol/placebo hazard ratio, mortality (M)",1st quartile of % NE change,1.03
same,"bucindolol/placebo hazard ratio, mortality + CHF hospitalization (M + H)",1st quartile of % NE change,1.14
same,"bucindolol/placebo hazard ratio, mortality (M)",[1],0.96
same,"bucindolol/placebo hazard ratio, mortality + CHF hospitalization (M + H)",[1],1.19
same,"bucindolol/placebo hazard ratio, mortality (M)",2nd quartile of % NE change,0.98
same,"bucindolol/placebo hazard ratio, mortality + CHF hospitalization (M + H)",2nd quartile of % NE change,1.39
same,"bucindolol/placebo hazard ratio, mortality (M)",[2],0.98
same,"bucindolol/placebo hazard ratio, mortality + CHF hospitalization (M + H)",[2],1.30
same,"bucindolol/placebo hazard ratio, mortality (M)",3rd quartile of % NE change,0.56
same,"bucindolol/placebo hazard ratio, mortality + CHF hospitalization (M + H)",3rd quartile of % NE change,0.65
same,"bucindolol/placebo hazard ratio, mortality (M)",[3],0.63
same,"bucindolol/placebo hazard ratio, mortality + CHF hospitalization (M + H)",[3],0.58
same,"bucindolol/placebo hazard ratio, mortality (M)",4th quartile of % NE change,0.90
same,"bucindolol/placebo hazard ratio, mortality + CHF hospitalization (M + H)",4th quartile of % NE change,0.66
same,"bucindolol/placebo hazard ratio, mortality (M)",[4],0.80
same,"bucindolol/placebo hazard ratio, mortality + CHF hospitalization (M + H)",[4],0.74
same,hazard ratio of subsequent mortality with norepinephrine reduction at 3 months (likelihood analysis),"153 bucindolol subjects, NE reduction ≧244.5 pg/ml",1.69
same,"hazard ratio for hospitalizations, bucindolol vs placebo",Arg389 homozygotes,0.63
same,"HF Hospitalization hazard ratio, bucindolol vs placebo",[5],0.76; 67 Ev
same,"Mortality + HF Hospitalization hazard ratio, bucindolol vs placebo",[5],0.89; 84 Ev
same,"HF Hospitalization hazard ratio, bucindolol vs placebo",BEST α2c WT/WT (n = 829/1036),0.74; 267 Ev
same,"Mortality + HF Hospitalization hazard ratio, bucindolol vs placebo",BEST α2c WT/WT (n = 829/1036),0.72; 341 Ev
same,"Mortality hazard ratio, bucindolol vs placebo",BEST α2c WT/WT (n = 829/1036),0.70; 155 Ev
same,"HF Hospitalization hazard ratio, bucindolol vs placebo","BEST β1 389Arg/Arg (n = 493/1040), hydrochloride",0.64 and 0.64; 154
same,"HF Hospitalization hazard ratio, bucindolol vs placebo",[6],0.81; 73 Ev
same,"Mortality + HF Hospitalization hazard ratio, bucindolol vs placebo",[6],0.85; 34 Ev
same,"Mortality hazard ratio, bucindolol vs placebo",[6],0.71; 13 Ev
same,"HF Hospitalization hazard ratio, bucindolol vs placebo",[7],0.59; 126 Ev
same,"Mortality + HF Hospitalization hazard ratio, bucindolol vs placebo",[7],0.61; 156 Ev
same,"Mortality hazard ratio, bucindolol vs placebo",[7],0.60; 69 Ev
same,"HF Hospitalization hazard ratio, bucindolol vs placebo",[8],0.62; 134 Ev
same,"Mortality + HF Hospitalization hazard ratio, bucindolol vs placebo",[8],0.81; 50 Ev
same,"Mortality hazard ratio, bucindolol vs placebo",[8],1.35; 24 Ev
same,"HF Hospitalization hazard ratio, bucindolol vs placebo",[9],0.93; 411 Ev
same,"Mortality + HF Hospitalization hazard ratio, bucindolol vs placebo",[9],0.86; 185 Ev
same,"Mortality hazard ratio, bucindolol vs placebo",[9],0.82; 86 Ev
same,Number of deaths (%),"Bucindolol Incr subgroup, n = 137",43 (31%)*
same,Number of deaths (%),"Bucindolol Inter subgroup, n = 551",114 (21%)
same,Number of deaths (%),"Bucindolol Redxn subgroup, n = 153",52 (34%)*
same,"hazard ratio for hospitalizations, bucindolol vs placebo",Gly389 carriers,0.85
same,Crude mortality,1st quartile of % NE change (< −30.2),25.2%
same,Crude mortality,1st quartile of absolute NE change (< −144 pg/ml),26.1%
same,Crude mortality,2nd quartile of % NE change (−30.2 to < −2.5),26.0%
same,Crude mortality,2nd quartile of absolute NE change (−144 to < −9 pg/ml),25.7%
same,Crude mortality,3rd quartile of % NE change (−2.5 to 31.1),18.8%
same,Crude mortality,3rd quartile of absolute NE change (−9 to 111 pg/ml),17.7* %
same,Crude mortality,4th quartile of % NE change (> 31.1),29.1%
same,Crude mortality,4th quartile of absolute NE change (> 111 pg/ml),28.6%
same,increased risk of subsequent mortality with marked norepinephrine reduction at 3 months,"bucindolol subgroup with NE reduction ≧244.5 pg/ml (Group 1) vs intermediate change group, hydrochloride",1.7 fold and 1.65 fold
same,"Mortality hazard ratio, Arg/Arg:Gly carrier","bucindolol-treated, BSL NE 64-356 pg/ml (146)",0.90
same,"Mortality hazard ratio, Arg/Arg:Gly carrier","bucindolol-treated, BSL NE 358-545 pg/ml (144)",0.74
same,"Mortality hazard ratio, Arg/Arg:Gly carrier","bucindolol-treated, BSL NE 546-2571 pg/ml (149)",0.68
same,"Mortality hazard ratio, Arg/Arg:Gly carrier","bucindolol-treated, Group 1, change in NE @ 3 mos <−244 (70)",1.07
same,"Mortality hazard ratio, Arg/Arg:Gly carrier","bucindolol-treated, Group 2, change in NE @ 3 mos −244 to 145 (248)",0.82
same,"Mortality hazard ratio, Arg/Arg:Gly carrier","bucindolol-treated, Group 3, change in NE @ 3 mos >145 (54)",0.36
same,relatively better mortality reduction of Arg homozygotes vs Gly carriers,"bucindolol-treated, increasing norepinephrine group (>145 pg/ml)",64%
same,"Mortality (M) hazard ratio, NE change quartile 2nd/1st",% NE change at 3 months,1.14
same,"Mortality (M) hazard ratio, NE change quartile 3rd/1st",% NE change at 3 months,0.77
same,"Mortality (M) hazard ratio, NE change quartile 4th/1st",% NE change at 3 months,1.19
same,"Mortality + CHF hospitalization (M + H) hazard ratio, NE change quartile 2nd/1st",% NE change at 3 months,1.18
same,"Mortality + CHF hospitalization (M + H) hazard ratio, NE change quartile 3rd/1st",% NE change at 3 months,0.91
same,"Mortality + CHF hospitalization (M + H) hazard ratio, NE change quartile 4th/1st",% NE change at 3 months,1.18
same,"Mortality (M) hazard ratio, NE change quartile 2nd/1st",[10],0.99
same,"Mortality (M) hazard ratio, NE change quartile 3rd/1st",[10],0.66
same,"Mortality (M) hazard ratio, NE change quartile 4th/1st",[10],1.15
same,"Mortality + CHF hospitalization (M + H) hazard ratio, NE change quartile 2nd/1st",[10],1.00
same,"Mortality + CHF hospitalization (M + H) hazard ratio, NE change quartile 3rd/1st",[10],0.83
same,"Mortality + CHF hospitalization (M + H) hazard ratio, NE change quartile 4th/1st",[10],1.10
same,increase in CV mortality,α2c DEL 322-325 and β1 389Gly carriers,36%
same,increase in cardiovascular mortality,α2c DEL 322-325 carriers,3%
same,increase in all-cause mortality,"α2c DEL 322-325 carriers who are β1 389Gly carriers, hydrochloride",36% and 35%
same,reduction in cardiovascular mortality,α2c WT/WT patients,41%
same,reduction in mortality plus HF hospitalization,α2c wild type patients,28%
same,reduction in all-cause mortality,"α2cAR wild type (WT/WT) patients, hydrochloride",29% and 30%
same,reduction in mortality,α2cAR wild type patients who are β1 389Gly carriers (nonsignificant),22%
same,mortality reduction,α2cAR-Del322-325 carriers with β1AR-389Arg/Arg,18%
same,increase in all-cause mortality,"α2cAR-Del322-325 carriers, hydrochloride",10% and 9%
same,reduction in all-cause mortality,[11],40%
same,reduction in cardiovascular mortality,[11],47%
same,reduction in mortality + heart failure hospitalization,[11],39%
same,reduction in cardiovascular mortality,β1 389Arg/Arg patients,46%
same,reduction in all-cause mortality,β1 389Gly carriers (nonsignificant),10%
same,reduction in cardiovascular mortality,β1 389Gly carriers (p=NS),22%
same,reduction in HF hospitalization,β1-389 Arg/Arg + α2c wild type patients,41%
same,"hazard ratio for survival, bucindolol vs placebo",β1-Arg389 homozygotes,0.62
same,"hazard ratio for survival, bucindolol vs placebo",β1-Gly389 carriers,0.89
same,reduction in all-cause mortality (improvement in survival),β1AR-389Arg/Arg patients,38%
